US5444042A, “Method of treatment of neurodegeneration with calpain inhibitors” (Cortex Pharmaceuticals, priority 1994, dated 1995)
Where a SMILES comes first, the peptide text is derived from it. The star is where a group is joined. CH2Cl = ClC*

Experiments:
[1] = system: Calpain in crude brain extracts; assay: Ca2+-stimulated spectrin proteolysis in crude brain extracts (Example 2); type: biochemical; settings: 100 μM
Method: The activity of Calpain in crude brain extracts was measured by examining the Ca^2+ -stimulated proteolysis of the endogenous substrate spectrin. Brain tissue was homogenized in 10 mM Tris pH=7.4, 0.32M sucrose, 1 mM EGTA, 1 mM dithiothreitol and the nuclei and debris removed by low speed centrifugation. […] Proteolysis of spectrin was evaluated by western blot as described by Seubert, et at. (Brain Research, 459:226-232, 1988), the disclosure of which is hereby incorporated by reference. Briefly, a known quantity of a spectrin-containing sample treated with Calpain is separated by SDS-PAGE and immunoblotted with anti-spectrin antibody. The amount of spectrin immunoreactivity found corresponding to the characteristic BDP's is indicative of the amount of […] activity present in the sample. An examplary method for quantitating BDP's is to assay Spectrin BDP's by homogenizing brain parts in 20 mM Tris pH=7.2, 0.32M sucrose, 50 μM Ac-Leu-Leu-nLeu-H on ice. Homogenates are then mixed 1:1 with 10% SDS, 5% β-mercaptoethanol, 10% glycerol, 10 mM Tris pH=8.0, 0.5% bromophenolblue, heated to 95° C., and subjected to electrophoresis in 41/2% polyacrylamide gels. The proteins in the gels are transferred to nitrocellulose and the spectrin and BDP's detected using a rabbit polyclonal anti-spectrin antibody and established immunodetection methods. The amount of spectrin and BDP's in each sample can be quantitated by densitrometric scanning of the developed nitrocellulose.

Calpain II = Calpain II KI (Table 1B(ii)); type: biochemical
From the text: (§1) We tested the ability of an additional group of Peptide Keto-Compounds to inhibit several proteases in order to evaluate their specificity for Calpain.

Calpain within platelets = assay: Platelet membrane permeation assay, spectrin proteolysis (Examples 4A, 4B); type: cell-based, rat; settings: for inhibition of Calpain within platelets: A23187 1 μM; for IC50: concentration at which 50% of the Calpain activation present in controls occurred
Method: Platelets were isolated by a modification of the method of Ferrell and Martin, J Biol. Chem., 264:20723-20729 (1989), the disclosure of which is hereby incorporated by reference. Blood (15-20 ml) was drawn from male Sprague-Dawley rats into 100 mM EDTA-citrate containing 10 units heparin, and centrifuged 30 minutes at 1600 rpm at room temperature. The plasma was resuspended in 15 ml buffer 1 (136 mM NaCl, 2.7 mM KCl, 0.42 mM NaH2 PO4, 12 mM NaHCO3, 2 mM MgCl2, 2 mg/ml BSA (Sigma), 5.6 mM glucose, 22 mM Na3 Citrate pH 6.5) and platelets were isolated at 2200 rpm at room temperature of 25 minutes. Platelets were resuspended to 10^7 cells/ml in buffer 2 (136 mM NaCl, 2.7 mM KCl, 0.42 NaH2 PO4, 12 mM NaHCO3, 2 mM MgCl, 1 mg/ml BSA, 5.6 mM glucose, 20 mM HEPES pH 7.4) and allowed to "rest" for a minimum of 10 minutes at room temperature before use.
Platelets were incubated for 5 minutes in the presence of inhibitor. In order to provide sufficient intracellular calcium to activate Calpain, the calcium ionophore A23187 was added to a final concentration of 1 μM. After a further 5 minute incubation, the platelets were harvested by centrifugation (1 min 10,000×g) and resuspended in 10% sodium dodecyl sulfate, 10 mM Tris pH=8.0, 5% β-mercaptoethanol, 0.02% bromophenol blue, and heated to 95° C. for 5 min. Samples were subjected to SDS-PAGE on 6% mini gels and transferred to nitrocellulose (Schleicher and Schuell BAS3) for 2 hours at 100 mA/gel in an LKB Novablot. Filters were blocked for 10 minutes in 0.25% gelatin, 1% BSA, 0.25% Triton X100, 0.9% NaCl, 10 mM Tris-Cl pH 7.5, incubated overnight in the same solution containing antibody to rat spectrin, washed 3×10 minutes with 10 mM Tris-Cl pH 7.5, 0.5 % Triton X100, incubated 4 hours in wash buffer plus alkaline phosphatase conjugated goat anti-rabbit antibody (Biorad), and washed as above. Filters were developed using the Biorad AP conjugate substrate kit. Spectrin immunoreactivity on the filters was quantitated by densitometry.

Cathepsin B = Cathepsin B (Bos taurus, UniProt P07688); assay: Cathepsin B KI (Table 1B(ii)); type: biochemical; settings: read-out: KI CathB
From the text: as §1

Chym = Chym (Bos taurus, UniProt P00766); assay: Chym KI (Table 1B(ii)); type: biochemical
From the text: as §1

Stability in plasma = type: in vitro ADME; settings: unit assumed
From the text: We determined the haft-life of several Peptide Keto-Compounds in both plasma and liver homogenates.

PP Elastase = PP Elastase (Sus scrofa, UniProt P00772); assay: PP Elastase KI (Table 1B(ii)); type: biochemical
From the text: as §1

Calpain I = target: T1, Calpain I (Homo sapiens, UniProt P07384); assay: Calpain I KI (Table 1B(ii)); type: biochemical; settings: Table 1B(ii)
T1 sequence (P07384 1-714): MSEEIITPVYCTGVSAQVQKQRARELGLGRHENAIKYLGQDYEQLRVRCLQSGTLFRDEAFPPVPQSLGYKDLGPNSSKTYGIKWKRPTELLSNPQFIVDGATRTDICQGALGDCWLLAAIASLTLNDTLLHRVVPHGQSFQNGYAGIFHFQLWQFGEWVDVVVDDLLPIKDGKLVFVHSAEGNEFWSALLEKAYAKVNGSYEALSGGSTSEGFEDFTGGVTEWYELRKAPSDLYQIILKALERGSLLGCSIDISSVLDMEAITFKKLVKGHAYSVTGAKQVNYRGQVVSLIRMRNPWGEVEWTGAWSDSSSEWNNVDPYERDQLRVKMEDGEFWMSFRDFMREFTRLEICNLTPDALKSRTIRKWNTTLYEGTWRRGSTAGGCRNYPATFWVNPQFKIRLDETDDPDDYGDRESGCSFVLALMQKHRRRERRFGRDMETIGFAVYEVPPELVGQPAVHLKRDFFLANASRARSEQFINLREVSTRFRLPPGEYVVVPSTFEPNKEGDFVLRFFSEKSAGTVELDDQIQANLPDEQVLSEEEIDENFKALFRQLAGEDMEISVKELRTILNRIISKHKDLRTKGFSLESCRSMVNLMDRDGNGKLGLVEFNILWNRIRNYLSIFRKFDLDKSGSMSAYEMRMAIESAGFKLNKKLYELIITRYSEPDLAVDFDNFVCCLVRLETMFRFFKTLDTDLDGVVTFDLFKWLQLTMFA
T1 sequence (P04632 1-268 partner): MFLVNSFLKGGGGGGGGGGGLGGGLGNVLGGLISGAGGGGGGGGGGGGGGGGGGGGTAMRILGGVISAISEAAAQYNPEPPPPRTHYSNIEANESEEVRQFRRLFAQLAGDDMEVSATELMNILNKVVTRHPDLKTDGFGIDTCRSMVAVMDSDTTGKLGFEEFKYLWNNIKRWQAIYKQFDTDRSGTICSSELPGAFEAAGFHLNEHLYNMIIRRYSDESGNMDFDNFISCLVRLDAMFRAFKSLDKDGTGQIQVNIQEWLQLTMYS
From the text: as §1

PP Elastase, sequence (P00772 27-266): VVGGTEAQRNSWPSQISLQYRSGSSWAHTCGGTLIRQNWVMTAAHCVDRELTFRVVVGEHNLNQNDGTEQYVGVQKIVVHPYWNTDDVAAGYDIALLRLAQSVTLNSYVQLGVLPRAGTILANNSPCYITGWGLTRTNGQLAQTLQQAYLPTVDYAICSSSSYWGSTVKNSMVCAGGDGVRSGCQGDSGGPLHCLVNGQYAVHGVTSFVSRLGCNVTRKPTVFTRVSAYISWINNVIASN

Compound | inhibition of spectrin proteolysis in crude brain extracts [1] | Ki (Calpain II) [µM] | inhibition of Calpain within platelets (Calpain within platelets; 100 μM) | further results
CC(=O)NC(C(=O)NC(Cc1ccccc1)C(=O)CCl)C(C)C (stereo not drawn) [Ac-Val-Phe-CH2Cl] (Ac-Val-Phe-CH2Cl; configuration not given here) | significant inhibition |  |  | 
CC[C@H](NC(=O)[C@H](CC(C)C)NC(=O)OCc1ccccc1)C(=O)C(=O)NCCc1ccccc1 [Z-Leu-Abu-CONH-(CH2)2 -Ph, Z-Leu-Abu-CONH-(CH2)2 Ph] |  | 0.022 |  | 
CCOC(=O)C(=O)C(CC)NC(=O)C(CC(C)C)NS(=O)(=O)c1ccc2ccccc2c1 (stereo not drawn) [2-NapSO2 -Leu-Abu-COOEt] |  |  | significant inhibition | 
CC(C)CNC(=O)C(=O)[C@H](Cc1ccccc1)NC(=O)[C@H](CC(C)C)NC(=O)OCc1ccccc1 [Z-Leu-Phe-CONHiBu, Z-Leu-Phe-CONH-iBu] |  | 0.065 |  | Ki (Cathepsin B): 4 µM; Ki (Chym): 24 µM; t1/2 plasma (Stability in plasma): > 1 h; IC50 (Calpain within platelets): 22 µM
O=c1oc(Cl)c(Cl)c2ccccc12 [3,4-dichloroisocoumarin, reference compound] | significant inhibition |  |  | 
CCC(NC(=O)C(CC(C)C)NC(=O)OCc1ccccc1)C(=O)C(=O)NCCO (stereo not drawn) [Z-Leu-Abu-CONH-(CH2)2 OH] |  | 0.078 |  | 
CC(C)C[C@H](NC(=O)OCc1ccccc1)C(=O)N[C@@H](Cc1ccccc1)C(=O)C(=O)NCCc1ccccc1 [Z-Leu-Phe-CONH(CH2)2 Ph, Z-Leu-Phe-CONH-(CH2)2 Ph] |  | 0.024 |  | Ki (Chym): 2 µM; t1/2 plasma (Stability in plasma): > 1 h; IC50 (Calpain within platelets): 3 µM
N=C(N)SCCCOc1oc(=O)c2cc(NC(=O)CCc3ccccc3)ccc2c1Cl [7-(3-phenylpropionylamino)-4-chloro-3-(3-isothiureidopropoxy)isocoumarin] | significant inhibition |  | significant inhibition | 
CCOC(=O)C(=O)[C@H](CC)NC(=O)[C@H](CC(C)C)NC(=O)[C@H](CC(C)C)NC(=O)c1ccc2ccccc2c1 [2-NapCO-Leu-Leu-Abu-COOEt] |  | 0.09 |  | Ki (Chym): > 300 µM; Ki (PP Elastase): 28 µM; t1/2 plasma (Stability in plasma): 0.417 h
Z-Leu-Abu |  |  | significant inhibition | 
N=C(N)SCCCOc1oc(=O)c2cc(NC(=O)Cc3ccccc3)ccc2c1Cl [7-(phenylacetylamino)-4-chloro-3-(3-isothiureidopropoxy)isocoumarin] | significant inhibition |  | significant inhibition | 
CCOC(=O)C(=O)C(CC)NC(=O)C(CC(C)C)NC(=O)C(CC(C)C)NC(=O)OCc1ccccc1 (stereo not drawn) [Z-Leu-Leu-Abu-COOEt] |  | 2.6 | significant inhibition | Ki (Cathepsin B): 22 µM; Ki (Chym): > 100 µM; Ki (PP Elastase): 25 µM; IC50 (Calpain within platelets): 40 µM
O=c1oc(Cl)cc2ccccc12 [3-chloroisocoumarin, reference compound] | significant inhibition |  | significant inhibition | 
CC[C@H](NC(=O)[C@H](CC(C)C)NC(=O)OCc1ccccc1)C(=O)C(=O)OCc1ccccc1 [Z-Leu-Abu-COOBz, Z-Leu-Abu-CO2 Bzl] |  | 0.47 | significant inhibition | Ki (Calpain I): 9.5 µM; Ki (Cathepsin B): 4 µM; Ki (Chym): 40 µM; Ki (PP Elastase): > 100 µM; platelet assay, semi-quantitative (Calpain within platelets; semi-quantitative, 100 μM): ++
N=C(N)SCCCOc1oc(=O)c2cc(NC(=O)Nc3ccccc3)ccc2c1Cl [7-(phenylcarbamoylamino)-4-chloro-3-(3-isothiureidopropoxy)isocoumarin] | significant inhibition |  | significant inhibition | 
N=C(N)SCCOc1oc(=O)c2cc(NC(=O)Nc3ccccc3)ccc2c1Cl [7-(phenylcarbamoylamino)-4-chloro-3-(2-isothiureidoethoxy)isocoumarin] | significant inhibition |  | significant inhibition | 
CCCCCCCCNC(=O)C(=O)[C@H](CC)NC(=O)[C@H](CC(C)C)NC(=O)OCc1ccccc1 [Z-Leu-Abu-CONH-(CH2)7 CH3, Z-Leu-Abu-CONH--(CH2)7 CH3] |  | 0.019 |  | 
CC[C@H](NC(=O)[C@H](CC(C)C)NC(=O)OCc1ccccc1)C(=O)C(=O)NCCCN1CCOCC1 [Z-Leu-Abu-CONH-(CH2)3 -Mpl, Z-Leu-Abu-CONH--(CH2)3 -N(CH2 CH2)2 O] |  | 0.041 |  | 
O=c1oc(OCc2ccccc2)c(Cl)c2ccccc12 [3-benzyloxy-4-chloroisocoumarin] | significant inhibition |  |  | 
CCC(NC(=O)C(CC(C)C)NC(=O)OCc1ccccc1)C(=O)C(=O)NCC(C)C (stereo not drawn) [Z-Leu-Abu-CONHiBu, Z-Leu-Abu-CONH-iBu] |  | 0.14 |  | Ki (Cathepsin B): 4 µM; Ki (Chym): > 300 µM; Ki (PP Elastase): 40 µM; t1/2 plasma (Stability in plasma): > 1 h; IC50 (Calpain within platelets): 28 µM
CCCOc1oc(=O)c2cc(NC(C)=O)ccc2c1Cl [7-(acetylamino)-4-chloro-3-(propoxy)-isocoumarin] | significant inhibition |  |  | 
CCOC(=O)C(=O)C(CC)NC(=O)C(CC(C)C)NC(=O)C(C)(C)c1ccccc1 (stereo not drawn) [Ph-(CH3)2 -CO-Leu-Abu-COOEt] |  | 1.2 |  | 
CC(C)C[C@H](NC(=O)OCc1ccccc1)C(=O)N[C@@H](Cc1ccccc1)C(=O)C(=O)NCc1ccccc1 [Z-Leu-Phe-CONHBz, Z-Leu-Phe-CONH-Bzl] |  | 0.046 |  | 
